Series [1] can be described thus: time course of residual chlorine concentration in 42° C. hot water. To be noted: chlorine level 0.4 ppm at start.
Another series concerns Escherichia coli. The series is described as follows: germicidal testing at 0.4 ppm chlorine (Comparative Example 2). To be noted: concentration of 0.4 ppm. The format is cell-based.
The subject of the next series is Legionella ssp. The format is cell-based.
A further series relates to Staphylococcus aureus. The series is described as follows: germicidal testing at 0.4 ppm chlorine (Comparative Example 2). Format: cell-based. The note with it: concentration of 0.4 ppm.

From patent US20070065519A1, “Copper ion-producing composition” (priority 2005, published 2007) come the findings set out here.

The structures appear in SMILES notation.

As for `OCl` [Sodium hypochlorite], the “residual concentration in the water (chlorine)” value in series [1] (after 30 minutes) is 0.3 ppm; in series [1] (after 60 minutes), 0.2 ppm; in series [1] (at 90 minutes), 0 ppm. Moreover, the germicidal activity entry with Escherichia coli, with Legionella ssp. and with Staphylococcus aureus was “no germicidal activity” throughout.
